Results published in US7906486B2, “Method of treating or preventing tissue deterioration, injury or damage due to disease of mucosa” (SciClone Pharmaceuticals, Inc., priority 2007, dated 2011).
Several values for one entry are separate records, joined by “and”; a condition that tells them apart may be missing. Equal entries are not always repeated.

Experiments:
[1] = system: oral mucositis induced by acute radiation (40 Gy, left buccal cheek pouch); assay: Oral mucositis induced by acute radiation in hamsters, mucositis scoring (Example 1, SCI-01); assay type: in vivo, Syrian Golden Hamsters; parameters: key to peak mean mucositis score: 0 = normal, 5 = severe ulceration; conditions: for Days <3: animal days with mucositis score below three; for % Days >=3 / Days >=3: animal days with mucositis score of three or more; for Chi Sq v control: days with score >=3
From the text: The acute radiation model in hamsters has proven to be an accurate, efficient and cost-effective technique to provide a preliminary evaluation of anti-mucositis compounds. The course of mucositis in this model is well defined and results in peak scores approximately 14-16 Days following radiation. The acute model has little systemic toxicity, resulting in few hamster deaths, thus permitting the use of smaller groups (N=7-8) for initial efficacy studies. It has also been used to study specific mechanistic elements in the pathogenesis of mucositis. Molecules that show efficacy in the acute radiation model may be further evaluated in the more complex models of fractionated radiation, chemotherapy, or concomitant therapy.
In this study, an acute radiation dose of 40 Gy on day 0 was administered. Clinically significant mucositis was observed on days 12 through 28.
Thirty-two (32) Syrian Golden Hamsters were given an acute radiation dose of 40 Gy directed to their left buccal cheek pouch on day 0. Test materials were given by sub-cutaneous injection once daily. Dosing began one day before radiation (day −1) and continued until day 16. Mucositis was evaluated clinically starting on day 6, and continuing on alternate days until day 28.
The grade of mucositis was scored, beginning day 6, and for every second day thereafter, through and including day 28. The effect on mucositis of each drug treatment compared to placebo was assessed according to the following parameters:
The difference in the number of days hamsters in each group have ulcerative (score ≧3) mucositis.
On each evaluation day, the number of animals with a blinded mucositis score of 3 in each drug treatment group was compared to the control group. Differences were compared on a cumulative basis and statistical significance was determined by chi-square analysis. Efficacy, in this analysis, is defined by a significant reduction in the number of days that a group of animals had ulcerations (scores 3) when compared to the control group.
For each evaluation day the scores of the control group were compared to those of the treated groups using non-parametric rank sum analysis. Treatment success was considered as a statistically significant lowering of scores in the treated group on 2 or more days from day 6 to day 28.
Thirty-two Syrian Golden Hamsters were divided into four (4) groups of eight (8) animals each. All animals received a single dose of acute radiation of 40 Gy directed to their left buccal cheek pouch on day 0. This was accomplished by anesthetizing the animals and everting the left buccal pouch, while protecting the rest of the animals with a lead shield. Test materials were given by sub-cutaneous injection once daily as detailed in Table 1. Mucositis was evaluated clinically starting on Day 6, and continuing on alternate days until day 28.
Mucositis was induced using a standardized acute radiation protocol. A single dose of radiation (40 Gy/dose) was administered to all animals on day 0. Radiation was generated with a 160 kilovolt potential (15-ma) source at a focal distance of 30 cm, hardened with a 0.35 mm Cu filtration system. Irradiation targeted the left buccal pouch mucosa at a rate of 3.2 Gy/minute. Prior to irradiation, animals were anesthetized with an intraperitoneal injection of Ketamine (160 mg/kg) and Xylazine (8 mg/kg). The left buccal pouch was everted, fixed and isolated using a lead shield to protect all other parts of the hamster's body.
The mucositis score, weight change and survival were measured throughout the study as described above. For the evaluation of mucositis, the animals were anesthetized with an inhalation anesthetic, and the left pouch everted. Mucositis was scored visually by comparison to a validated photographic scale, ranging from 0 for normal, to 5 for severe ulceration (clinical scoring). In descriptive terms, this scale is defined as follows: […]

[2] = Weights and survival (Example 4, SCI-04); assay type: in vivo, Syrian Golden Hamsters; parameters: Animal weight: unit not given here; conditions: for Animal weight: Group 2 (SCV-07 10 μg/kg, day −1 to day 20), individual animals
Description: All animals were weighed daily and their survival recorded, in order to assess possible differences in animal weight among treatment groups as an indication for mucositis severity and/or possible toxicity resulting from the treatments.
There were no significant differences in weight changes between study groups. The mean daily percent weight change data was evaluated. The saline treated control hamsters gained an average of 46.5% of their starting weight during the study. Hamsters in the group receiving SCV-07 at 10 μg/kg on days −1 to 20 gained an average of 51.3% of their starting weight during the study. Hamsters in the group receiving SCV-07 at 100 μg/kg on days −1 to 20 gained an average of 46.7% of their starting weight during the study. Hamsters in the group receiving SCV-07 at 1 mg/kg from day −1 to day 20 gained an average of 48.8% of their starting weight during the study. The significance of these differences was evaluated by calculating the area-under-the-curve (AUC) for the weight gain of each animal, and then comparing the different treatment groups using a One-Way ANOVA test.

## N[C@H](CCC(=O)N[C@@H](Cc1c[nH]c2ccccc12)C(=O)O)C(=O)O [SCV-07, γ-D-glutamyl-L-tryptophan]
[1]; 1 ug/kg from day -1 to 16
  day of peak mean mucositis score: 16
  peak mean mucositis score: 3.8
[1]; 1 ug/kg on days -1 to 16, any day of the study
  improvement in daily mucositis scores relative to saline controls (Mann-Whitney rank sum): did not show any statistically significant improvement on any day
[1]; 10 ug/kg from day -1 to 16
  day of peak mean mucositis score: 16
  peak mean mucositis score: 3.7
[1]; 100 ug/kg from day -1 to 16
  day of peak mean mucositis score: 18
  peak mean mucositis score: 3.4
[1]; 1 ug/kg sc Days -1 to 16
  Days <3: 102
  % Days >=3: 46.9%
  Days >=3: 90
  Chi Sq v control: 0.0105
[1]; 10 ug/kg sc Days -1 to 16
  Days <3: 120
  % Days >=3: 37.5%
  Days >=3: 72
  Chi Sq v control: 3.0860
[1]; 100 ug/kg sc Days -1 to 16
  Days <3: 124
  % Days >=3: 35.4%
  Days >=3: 68
  Chi Sq v control: 4.7420
[2]; 10 ug/kg on days -1 to 20
  average weight gain, % of starting weight during the study: 51.3%
[2]; 100 ug/kg on days -1 to 20
  average weight gain, % of starting weight during the study: 46.7%
[2]; 1 mg/kg from day -1 to day 20
  average weight gain, % of starting weight during the study: 48.8%
[2]; day 0
  Animal weight: 77 (2×) and 102 and 84 and 80 and 94
[2]; day 1
  Animal weight: 74 and 101 and 83 and 80 and 76 and 91
[2]; day 2
  Animal weight: 78 and 104 and 89 and 86 and 77 and 94
[2]; day 3
  Animal weight: 82 and 111 and 93 and 88 and 79 and 98
[2]; day 4
  Animal weight: 83 and 113 and 95 and 90 and 82 and 101
[2]; day 5
  Animal weight: 86 and 112 and 98 and 93 and 83 and 103
[2]; day 6
  Animal weight: 88 and 114 and 101 and 96 and 84 and 106
[2]; day 7
  Animal weight: 90 and 117 and 103 and 98 and 86 and 108 and 80
[2]; day 8
  Animal weight: 92 and 121 and 106 and 101 and 88 and 109 and 83
[2]; day 9
  Animal weight: 94 and 122 and 106 and 102 and 91 and 108 and 83
[2]; day 10
  Animal weight: 96 and 125 and 112 and 105 and 90 and 109 and 85
[2]; day 11
  Animal weight: 98 and 125 and 111 and 105 and 92 and 109
[2]; day 12
  Animal weight: 98 and 128 and 111 and 107 and 91 and 109
[2]; day 13
  Animal weight: 98 and 128 and 112 and 108 (2×) and 90
[2]; day 14
  Animal weight: 99 and 130 and 115 and 109 and 91 and 111
[2]; day −1
  Animal weight: 77 and 101 and 85 and 82 and 76 and 94
